Key:
[1] = Thermodynamic stability of crystal forms; settings: among free acid crystal forms of Compound II
[2] = Hygroscopicity of the crystalline form; format: physicochemical; settings: solid crystalline form

## CC[C@@H](Oc1cccc(Cn2c(C)c(C(=O)c3ccc(Cl)cc3)c3ccc(OC(F)(F)F)cc32)c1)C(=O)O [Acid Form C, (2R)-2-{3-[[3-(4-chlorobenzoyl)-2-methyl-6-(trifluoromethoxy)-1H-indol-1-yl]methyl]phenoxy}butyric acid]
[1]
  thermodynamic stability of crystal form: thermodynamically stable
[1]; listed as Form C free acid
  thermodynamic stability of crystal form: most thermodynamically stable acid form

## CC[C@@H](Oc1cccc(-n2c(C)c(C(=O)c3ccc(OC)cc3)c3ccc(OC(F)(F)F)cc32)c1)C(=O)O [crystalline dihydrate, (2R)-2-{3-[3-(4-methoxybenzoyl)-2-methyl-6-(trifluoromethoxy)-1H-indol-1-yl]phenoxy}butanoic acid]
[2]
  hygroscopicity: non-hygroscopic
